Data on four compounds can be found in ChEMBL document CHEMBL5029152, “Discovery of Highly Potent and Selective IRAK1 Degraders to Probe Scaffolding Functions of IRAK1 in ABC DLBCL” (J Med Chem, 2021).

Assay [1] addresses Interleukin-1 receptor-associated kinase 1 (Homo sapiens, UniProt P51617). In words: Inhibition of truncated human N-terminal GST-fusion tagged IRAK1 (194 to 712 residues) expressed in baculovirus expression system using FAM-labelled peptide as substrate preincubated for 10 mins followed by substrate addition and further incubated for 1 hr in presence of ATP at Km concentration by caliper mobility shift assay.

The target of assay [2] is von Hippel-Lindau disease tumor suppressor (Homo sapiens, UniProt P40337). In words: Displacement of 5-FAM-labelled DEALA-HypYIPMDDDFQLRSF peptide from VHL (unknown origin) by fluorescence polarization assay.
For assay [3], the target named is T1, von Hippel-Lindau disease tumor suppressor/Interleukin-1 receptor-associated kinase 1 (Homo sapiens, UniProt P51617+P40337). The assay can be described thus: Protac activity at IRAK1/VHL E3 ligase in HEK293T cells assessed as induction of IRAK1 degradation at 10 uM measured after 24 hrs by Western blot analysis relative to control. It counts as cell-based. For orientation: Immunoblotting shows a protein as a band on a membrane.
Target sequence in this assay (P40337 whole entry, looked up): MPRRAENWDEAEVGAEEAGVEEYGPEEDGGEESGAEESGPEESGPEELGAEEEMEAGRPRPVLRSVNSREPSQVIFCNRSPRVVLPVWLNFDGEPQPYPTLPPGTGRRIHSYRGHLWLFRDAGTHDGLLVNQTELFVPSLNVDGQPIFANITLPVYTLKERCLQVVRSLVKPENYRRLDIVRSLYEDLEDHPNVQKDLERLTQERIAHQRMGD
Target sequence in this assay (P51617 whole entry, looked up): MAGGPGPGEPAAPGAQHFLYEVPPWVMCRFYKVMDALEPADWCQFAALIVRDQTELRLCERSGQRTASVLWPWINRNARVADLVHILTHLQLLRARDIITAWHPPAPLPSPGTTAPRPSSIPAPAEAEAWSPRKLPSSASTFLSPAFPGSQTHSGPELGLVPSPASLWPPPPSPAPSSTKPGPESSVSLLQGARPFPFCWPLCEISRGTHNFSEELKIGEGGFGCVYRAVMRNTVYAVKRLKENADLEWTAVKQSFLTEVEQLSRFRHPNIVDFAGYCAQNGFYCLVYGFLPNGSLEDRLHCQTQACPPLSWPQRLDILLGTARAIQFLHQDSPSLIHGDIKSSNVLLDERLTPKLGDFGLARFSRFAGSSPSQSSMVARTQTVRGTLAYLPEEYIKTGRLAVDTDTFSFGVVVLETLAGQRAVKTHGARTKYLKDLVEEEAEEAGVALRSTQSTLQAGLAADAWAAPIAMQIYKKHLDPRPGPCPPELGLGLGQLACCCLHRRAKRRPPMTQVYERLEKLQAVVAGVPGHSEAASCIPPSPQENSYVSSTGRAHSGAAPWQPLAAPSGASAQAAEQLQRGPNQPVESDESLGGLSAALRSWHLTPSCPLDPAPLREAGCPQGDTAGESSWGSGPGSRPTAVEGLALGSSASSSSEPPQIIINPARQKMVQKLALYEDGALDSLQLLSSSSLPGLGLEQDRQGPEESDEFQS

In assay [4] the target is T2, Interleukin-1 receptor-associated kinase 4 (Homo sapiens, UniProt Q9NWZ3).
T2 sequence (Q9NWZ3 whole entry): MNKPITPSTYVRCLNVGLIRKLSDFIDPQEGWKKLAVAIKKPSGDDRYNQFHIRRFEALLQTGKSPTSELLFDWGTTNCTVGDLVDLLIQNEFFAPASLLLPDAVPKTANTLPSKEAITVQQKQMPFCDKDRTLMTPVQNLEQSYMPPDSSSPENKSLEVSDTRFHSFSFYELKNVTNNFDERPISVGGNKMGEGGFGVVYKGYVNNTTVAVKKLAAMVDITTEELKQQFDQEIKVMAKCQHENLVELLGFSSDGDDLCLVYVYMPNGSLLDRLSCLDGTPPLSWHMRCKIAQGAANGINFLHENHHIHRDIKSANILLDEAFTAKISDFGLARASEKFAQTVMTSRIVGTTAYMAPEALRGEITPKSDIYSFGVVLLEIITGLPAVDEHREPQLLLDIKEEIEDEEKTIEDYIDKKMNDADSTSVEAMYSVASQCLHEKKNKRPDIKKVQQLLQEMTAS
In words: Inhibition of full length human N-terminal GST-fusion tagged IRAK4 expressed in baculovirus expression system using FAM-labelled peptide as substrate preincubated for 10 mins followed by substrate addition and further incubated for 1 hr in presence of ATP at Km concentration by caliper mobility shift assay.

Assay [5] addresses T1, von Hippel-Lindau disease tumor suppressor/Interleukin-1 receptor-associated kinase 1. In words: Protac activity at IRAK1/VHL E3 ligase in HEK293T cells assessed as induction of IRAK1 degradation at >=1 uM measured after 2 hrs by Western blot analysis relative to control. The format is cell-based. Particulars: dose microM >=1, time 2.0 hrs.
Target sequence in this assay (P40337 whole entry, looked up): as the sequence (P40337 whole entry, looked up) above
Target sequence in this assay (P51617 whole entry, looked up): as the sequence (P51617 whole entry, looked up) above
The target is the same in assay [6]. In words: Protac activity at IRAK1/VHL E3 ligase in HEK293T cells assessed as induction of IRAK1 degradation at >=1 uM measured after 8 hrs by Western blot analysis relative to control. It counts as cell-based. Conditions: dose microM >=1, time 8.0 hrs.
Target sequence in this assay (P40337 whole entry, looked up): as the sequence (P40337 whole entry, looked up) above
Target sequence in this assay (P51617 whole entry, looked up): as the sequence (P51617 whole entry, looked up) above
Assay [7] has the same target. In words: Protac activity at IRAK1/VHL E3 ligase in HEK293T cells assessed as induction of IRAK1 degradation measured after 24 hrs by Western blot analysis. It counts as cell-based.
Target sequence in this assay (P51617 whole entry): as the sequence (P51617 whole entry, looked up) above
Target sequence in this assay (P40337 whole entry): as the sequence (P40337 whole entry, looked up) above
Assay [8] in a line: Cytotoxicity against human HBL1 cells assessed as cell growth inhibition measured after 12 days by WST-8 assay. The format is functional, cell-based. Particulars: HBL1, 288 h. In general terms: Tetrazolium assays rely on reduction of a dye to a coloured formazan, in cell work by metabolically active cells.
The test system of assay [9] is OCI-Ly10. The assay can be described thus: Cytotoxicity against human OCILY10 cells assessed as reduction in cell viability measured after 12 days by CellTiter-Glo assay. The format is functional. Particulars: time 12 day. (In general: Cellular ATP, detected with luciferase, serves as a proxy for viable cell number.)
Assay [10] is described as follows: Cytotoxicity against human HBL1 cells assessed as reduction in cell viability measured after 12 days by CellTiter-Glo assay. The format is functional. Particulars: time 12 day.

Bounds are passed on as bounds.

Sequence of von Hippel-Lindau disease tumor suppressor (P40337 whole entry): as the sequence (P40337 whole entry, looked up) above
Sequence of Interleukin-1 receptor-associated kinase 1 (P51617 whole entry, the tested form may be a part): as the sequence (P51617 whole entry, looked up) above

Usually IC50 stands for the point on the concentration scale where inhibition reaches its midpoint. For the compound `COc1cc(N2CCC(OCC(=O)N[C@H](C(=O)N3C[C@H](O)C[C@H]3C(=O)NCc3ccc(-c4scnc4C)cc3)C(C)(C)C)CC2)ccc1NC(=O)c1cccc(-c2ccn[nH]2)n1`, the IC50 in assay [1] was 60 nM; in assay [2], 1400 nM; in [4], 260 nM. The %max in assay [3] was determined as 95%.

In general, DC50 refers to the concentration giving 50% degradation. As to `COc1cc(N2CCN(CCC(=O)N[C@H](C(=O)N3C[C@H](O)C[C@H]3C(=O)NCc3ccc(-c4scnc4C)cc3)C(C)(C)C)CC2)ccc1NC(=O)c1cccc(-c2cc[nH]n2)n1`, the IC50 in assay [1] turned out to be 80 nM; in assay [2], 1650 nM; in assay [4] it was 368 nM. The Activity in assay [5] was 50%; in [6], above 90%. Moreover, the %max in [3] was 88%. Further, the DC50 in assay [7] came to 134 nM.

For `COc1cc(N2CCOCC2)ccc1NC(=O)c1cccc(-c2ccn[nH]2)n1`, the IC50 came to 2800 nM in assay [8], 23 nM in [1] and 24 nM in [4].

For the compound `COc1cc(N2CCC(OCC(=O)N[C@H](C(=O)N3C[C@@H](O)C[C@H]3C(=O)N[C@@H](C)c3ccc(-c4scnc4C)cc3)C(C)(C)C)CC2)ccc1NC(=O)c1cccc(-c2ccn[nH]2)n1`, the Activity stood at 3 µM in assay [9] and 1.5 µM in assay [10]. Also, the values for the IC50 in assay [1], in assay [2] and in [4] were 79 nM, above 10000 nM and 320 nM, respectively. For the same compound, the %max in [3] was found to be 18%. Further, the DC50 in assay [7] is above 10000 nM.
